We go through three compounds from publication PMC11519904, “Comprehensive Cell Biological Investigation of Cytochalasin B Derivatives with Distinct Activities on the Actin Network” (Journal of Natural Products, 2024).

Converted amounts (≈) assume the structure as drawn. “Also recorded” adds a separate entry of the source. Read-outs that look alike come from different tables or passages of the source.

Assay [1] relates to glucose carrier in human erythrocytes. The settings on record: cited from earlier work.
The test system of a further assay is U-2OS cells. In words: Cell proliferation assay (Incucyte), 24 h treatment and 47 h recovery. It counts as cell-based, human. The conditions noted are these: 24 h 5 x IC50 treatment. As to the method: U-2OS cells were seeded into fibronectin-coated (25 μg/mL) 96-well plate wells at densities of 3700 cells/well and allowed to spread overnight at 37 °C and 7.5% CO2. Cells were treated with 5 × IC50 concentrations of desired compounds for 24 h, washed twice with prewarmed PBS, and cultured in complete medium for further 47 h. Cells were recorded immediately after compound addition over the course of the experiment using an Incucyte S3 live-cell analysis system (Sartorius, Göttingen, Germany) with a 20 × objective at 37 °C and 5% CO2. Three phase contrast images per well and three wells per treatment were captured every hour for 71 h. The quantification of phase object counts was accomplished with the Adherent Cell-by-Cell analysis module of the IncuCyte S3 Live Cell Analysis Software and normalized to the average, respective initial phase contrast count. Graphical presentation of the data and ordinary one-way ANOVA followed by Dunnett’s multiple comparisons test was performed using GraphPad Prism version 8.4.3 for Windows, GraphPad Software (Boston, MA, USA, www.graphpad.com).

Assay [2] deals with Schizosaccharomyces pombe (DSM 70572). The assay is described as follows: Serial dilution assay (MIC), S. pombe. Type of assay: cell-based. The conditions noted are these: DSM70572, growth inhibition at 24 h, read-out: MIC against S. pombe. As to the method: Serial dilutions of compounds were prepared as triplicates in sterile U-bottom-shaped 96-well plates (Corning, USA). Mueller-Hinton broth (MHB) medium was used for bacteria, and YMG medium was used for filamentous fungi and yeasts. The selected organisms represent a broad spectrum of pathogens of clinical interest, as well as sensitive indicator strains (Gram-positive bacteria: Bacillus subtilis (DSM 10), Staphylococcus aureus (DSM 346), Mycobacterium smegmatis (ATCC 7000084); Gram-negative bacteria: Acinetobacter baumannii (DSM 30008), Chromobacterium violaceum (DSM 30191), Escherichia coli (DSM 1116), Pseudomonas aeruginosa (PA 14); fungi and yeast: Schizosaccharomyces pombe (DSM 70572), Pichia anomala (DSM 6766), Mucor hiemalis (DSM 2656), Candida albicans (DSM 1665), Rhodotorula glutinis (DSM 10134)).
The compounds were dissolved in MeOH (1 mg/mL), added to the bacterial suspension, and diluted to the final concentrations. The plate was incubated at 37 °C under static conditions. Growth inhibition was assessed at 24 h. MeOH was used as negative control. […]

Assay [3] deals with KB3.1 (human cervix carcinoma). In words: Cytotoxicity assay (MTT), KB3.1. Type of assay: cell-based. The settings on record: 5 days of incubation, MTT, read-out: IC50 KB3.1. As to the method: The cytotoxicity assay was implemented in 96-well flat-bottom microtiter plates following a reported procedure.[21],[22],[33] The mammalian cell lines L929 (mouse fibroblast) and KB3.1 (human cervix carcinoma) were cultivated at 37 °C and 10% CO2 in Dulbecco’s modified minimum essential medium (DMEM, Life Technologies, Carlsbad, CA, USA) supplemented with 10% fetal bovine serum (FBS, Life Technologies). The microtiter plate was filled with 120 μL of suspended cells (50,000/mL), and 60 μL of a serial dilution of the test compound was added. After 5 days of incubation, growth inhibition (IC50) was determined by a colorimetric tetrazolium dye MTT assay.[34] The compounds were dissolved in MeOH (1 mg/mL), MeOH was used as negative control, and epothilone[35] (1 mg/mL) was used as positive control.

`C=C1[C@@H](C)[C@H]2[C@H](Cc3ccccc3)NC(=O)[C@]23OC(=O)/C=C/[C@H](O)CCC[C@@H](C)C/C=C/[C@H]3[C@@H]1OC(C)=O` [Compound 3, 7-O-acetyl cytochalasin B]: the “binding to site I of the glucose carrier” value in assay [1] (human erythrocyte membranes ref 30) is “able to bind site I”. For the same compound, in assay [1] (human erythrocytes ref 29, 30), the “inhibition of glucose transport” value was “inhibits glucose transport”. Besides, the “cell proliferation / recovery after washout” value in the assay on U-2OS cells was “significantly diminished; also recorded: completely abolished”.

The MIC is the smallest concentration in the dilution series that meets the test's criterion for growth inhibition. `C=C1[C@@H](C)[C@H]2[C@H](Cc3ccccc3)NC(=O)[C@]23OC(=O)/C=C/[C@H](OC(C)=O)CCC[C@@H](C)C/C=C/[C@H]3[C@@H]1O` [Compound 6, 20-O-acetyl cytochalasin B]: the MIC in assay [2] was 33.3 µg/mL (≈ 63.8 µM).

In general, IC50 refers to the point on the concentration scale where inhibition reaches its midpoint. As to `C=C1[C@@H](C)[C@H]2[C@H](Cc3ccccc3)N(C(C)=O)C(=O)[C@]23OC(=O)/C=C/[C@H](O)CCC[C@@H](C)C/C=C/[C@H]3[C@@H]1O` [Compound 5, N-acetyl cytochalasin B], the IC50 is 7.9 µM in assay [3] and 4.8 to 9.4 µM in assay [3] (Homo sapiens, KB 3-1, 120 h).
